Test results taken from patent US11053204B2, “Pyrimidinyloxy benzene derivatives as herbicides” (FMC Corporation, priority 2015, dated 2021).

What was measured:
Type in all cases: in vivo
[1] = test system: Italian ryegrass (Lolium multiflorum); experiment: Test A postemergence, visual injury rating; conditions: Lolium multiflorum, post-emergence, 240 h, 0 is no effect, 100 is complete control, read-out: Ryegrass, Italian plant response rating (0 to 100 scale)
Procedure, shortened: (§1)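 Compounds in non-phytotoxic solvent with surfactant applied as soil spray preemergence, or postemergence to plants 2-10 cm at one- to two-leaf stage, in loam/sand. After approximately 10 days in greenhouse, injury rated visually versus untreated controls, 0 (no effect) to 100 (complete control).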

corn (Zea mays) = experiment: Test A postemergence, visual injury rating; conditions: Zea mays, post-emergence, 240 h, 0 is no effect, 100 is complete control, read-out: Corn plant response rating (0 to 100 scale)
Procedure, shortened: as §1

[2] = test system: giant foxtail (Setaria faberii); experiment: Test A postemergence, visual injury rating; conditions: Setaria faberi, post-emergence, 240 h, 0 is no effect, 100 is complete control, read-out: Foxtail, Giant plant response rating (0 to 100 scale)
Procedure, shortened: as §1

kochia (Kochia scoparia) [3] = experiment: Test A postemergence, visual injury rating; conditions: Bassia scoparia, post-emergence, 240 h, 0 is no effect, 100 is complete control, read-out: Kochia plant response rating (0 to 100 scale)
Procedure, shortened: as §1

[4] = test system: pigweed (Amaranthus retroflexus); experiment: Test A postemergence, visual injury rating; conditions: Amaranthus retroflexus, post-emergence, 240 h, 0 is no effect, 100 is complete control, read-out: Pigweed plant response rating (0 to 100 scale)
Procedure, shortened: as §1

[5] = test system: ragweed (common ragweed, Ambrosia elatior); experiment: Test A postemergence, visual injury rating; conditions: Ambrosia artemisiifolia, post-emergence, 240 h, 0 is no effect, 100 is complete control, read-out: Ragweed plant response rating (0 to 100 scale)
Procedure, shortened: as §1

[6] = test system: wheat (Triticum aestivum); experiment: Test A postemergence, visual injury rating; conditions: Triticum aestivum, post-emergence, 240 h, 0 is no effect, 100 is complete control, read-out: Wheat plant response rating (0 to 100 scale)
Procedure, shortened: as §1

[7] = test system: barnyardgrass (Echinochloa crus-galli); experiment: Test B flooded paddy test, plant response rating; conditions: Echinochloa crus-galli, 312 h; 250 g ai/ha; Flood; scale of 0 to 100 where 0 is no effect and 100 is complete control; 13 to 15 days
Procedure, shortened: (§2)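 Visual injury ratings against untreated controls, taken 13 to 15 days after compound was added to paddy water standing 3 cm above the soil.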

[8] = test system: ducksalad (Heteranthera limosa); experiment: Test B flooded paddy test, plant response rating; conditions: Heteranthera limosa, 312 h; 250 g ai/ha; Flood; scale of 0 to 100 where 0 is no effect and 100 is complete control; 13 to 15 days
Procedure, shortened: as §2

rice (Oryza sativa) = experiment: Test B flooded paddy test, plant response rating; conditions: Oryza sativa, 312 h; 250 g ai/ha; Flood; scale of 0 to 100 where 0 is no effect and 100 is complete control; 13 to 15 days
Procedure, shortened: as §2

[9] = test system: sedge, umbrella (small-flower umbrella sedge, Cyperus difformis); experiment: Test B flooded paddy test, plant response rating; conditions: Cyperus difformis, 312 h; 250 g ai/ha; Flood; scale of 0 to 100 where 0 is no effect and 100 is complete control; 13 to 15 days
Procedure, shortened: as §2

[10] = test system: barnyardgrass (Echinochloa crus-galli); experiment: Test C postemergence, plant response rating; conditions: Echinochloa crus-galli, post-emergence
Procedure, shortened: (§3)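 Pre-emergence: seeds sown in loam soil–sand blend or silt loam and sprayed with test chemicals in a non-phytotoxic solvent mixture with surfactant. Post-emergence: plants 2 to 18 cm (1- to 4-leaf stage) in peat-based potting medium, same formulation. Greenhouse 13 to 15 d; visual rating 0 (no effect) to 100 (complete control) versus controls.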

kochia (Kochia scoparia) [11] = experiment: Test C postemergence, plant response rating; conditions: Bassia scoparia, post-emergence
Procedure, shortened: as §3

[12] = test system: morningglory (Ipomoea coccinea); experiment: Test C postemergence, plant response rating; conditions: Ipomoea, post-emergence
Procedure, shortened: as §3

[13] = test system: oilseed rape (Brassica napus); experiment: Test C postemergence, plant response rating; conditions: Brassica napus, post-emergence
Procedure, shortened: as §3

[14] = test system: ragweed (common ragweed, Ambrosia elatior); experiment: Test C postemergence, plant response rating; conditions: Ambrosia artemisiifolia, post-emergence
Procedure, shortened: as §3

[15] = test system: velvetleaf (Abutilon theophrasti); experiment: Test C postemergence, plant response rating; conditions: Abutilon theophrasti, post-emergence
Procedure, shortened: as §3

[16] = test system: waterhemp (common waterhemp, Amaranthus rudis); experiment: Test C postemergence, plant response rating; conditions: for Plant response rating, Waterhemp: scale 0 to 100; for Waterhemp plant response rating: scale 0 to 100 (0 no effect, 100 complete control)
Procedure, shortened: as §3

[17] = 62 g ai/ha, scale 0 to 100 (0 no effect, 100 complete control)
[18] = 125 g ai/ha, scale 0 to 100 (0 no effect, 100 complete control)

## O=C(OCCCC(F)(F)F)c1c(Br)cccc1Oc1ncc(Cl)cn1 [Compound 20, 4,4,4-trifluorobutyl 2-bromo-6-[(5-chloro-2-pyrimidinyl)oxy]benzoate]
[1]; 125 g ai/ha
  pest or weed control at 125 g/ha: 0%
[1]; 500 g ai/ha
  pest or weed control at 500 g/ha: 40%
Corn (Zea mays); 125 g ai/ha
  plant injury at 125 g/ha: 30%
Corn (Zea mays); 500 g ai/ha
  plant injury at 500 g/ha: 40%
[2]; 125 g ai/ha
  pest or weed control at 125 g/ha: 50%
[2]; 500 g ai/ha
  pest or weed control at 500 g/ha: 100%
Kochia (Kochia scoparia) [3]; 125 g ai/ha
  pest or weed control at 125 g/ha: 90%
Kochia (Kochia scoparia) [3]; 500 g ai/ha
  pest or weed control at 500 g/ha: 100%
[4]; 125 g ai/ha
  pest or weed control at 125 g/ha: 100%
[4]; 500 g ai/ha
  pest or weed control at 500 g/ha: 100%
[5]; 125 g ai/ha
  pest or weed control at 125 g/ha: 0%
[5]; 500 g ai/ha
  pest or weed control at 500 g/ha: 40%
[6]; 125 g ai/ha
  plant injury at 125 g/ha: 0%
[6]; 500 g ai/ha
  plant injury at 500 g/ha: 20%
[7]
  pest or weed control at 250 g/ha: 0%
[8]
  pest or weed control at 250 g/ha: 30%
Rice (Oryza sativa)
  plant injury at 250 g/ha: 0%
[9]
  pest or weed control at 250 g/ha: 40%
[10]; 16 g ai/ha, scale 0 to 100
  pest or weed control at 16 g/ha: 10%
[10]; 31 g ai/ha, scale 0 to 100
  pest or weed control at 31 g/ha: 10%
[10]; [17]
  pest or weed control at 62 g/ha: 10%
[10]; [18]
  pest or weed control at 125 g/ha: 20%
Kochia (Kochia scoparia) [11]; 16 g ai/ha, scale 0 to 100
  pest or weed control at 16 g/ha: 95%
Kochia (Kochia scoparia) [11]; 31 g ai/ha, scale 0 to 100
  pest or weed control at 31 g/ha: 95%
Kochia (Kochia scoparia) [11]; [17]
  pest or weed control at 62 g/ha: 100%
Kochia (Kochia scoparia) [11]; [18]
  pest or weed control at 125 g/ha: 100%
[12]; 16 g ai/ha, scale 0 to 100
  pest or weed control at 16 g/ha: 75%
[12]; 31 g ai/ha, scale 0 to 100
  pest or weed control at 31 g/ha: 65%
[12]; [17]
  pest or weed control at 62 g/ha: 70%
[12]; [18]
  pest or weed control at 125 g/ha: 70%
[13]; 16 g ai/ha, scale 0 to 100
  plant injury at 16 g/ha: 50%
[13]; 31 g ai/ha, scale 0 to 100
  plant injury at 31 g/ha: 50%
[13]; [17]
  plant injury at 62 g/ha: 50%
[13]; [18]
  plant injury at 125 g/ha: 60%
[14]; 16 g ai/ha, scale 0 to 100
  pest or weed control at 16 g/ha: 30%
[14]; 31 g ai/ha, scale 0 to 100
  pest or weed control at 31 g/ha: 50%
[14]; [17]
  pest or weed control at 62 g/ha: 55%
[14]; [18]
  pest or weed control at 125 g/ha: 60%
[15]; 16 g ai/ha, scale 0 to 100
  pest or weed control at 16 g/ha: 20%
[15]; 31 g ai/ha, scale 0 to 100
  pest or weed control at 31 g/ha: 50%
[15]; 62 g ai/ha, scale 0 to 100 (0 no effect, 100 complete control), read-out: Velvetleaf plant response rating
  pest or weed control at 62 g/ha: 40%
[15]; [18]
  pest or weed control at 125 g/ha: 70%
[16]; 16 g ai/ha
  Plant response rating, Waterhemp: 75
[16]; 31 g ai/ha
  Plant response rating, Waterhemp: 95
[16]; 62 g ai/ha
  Waterhemp plant response rating: 90
[16]; 125 g ai/ha
  Waterhemp plant response rating: 98
